Data on 76 molecules can be found in the OPERA property sets (Mansouri et al. 2018).

Where a SMILES comes first, the peptide text is derived from it.

As a reminder, the logP is a log measure of how a compound divides between an organic and an aqueous phase. Read a low logP as lower lipophilicity. Molecule `O=S(=O)(NC(=S)NC1CCCCC1)c1cnccc1NC1CCCCCCC1` showed a logP of 5.04.

With `CC(N)C(=O)N1CCCC1C(=O)O` (stereo unspecified), the logP was -2.71.

In the case of `Nc1nnnn1-c1ccc(F)cc1`, the logP turned out to be 0.75.

The molecule `Brc1c2ccccc2cc2ccccc12` showed a logP of 5.37.

The molecule `c1ccc(N2CCN(CCCOn3nnc4ccccc43)CC2)cc1` displayed a logP of 3.49.

As for `O=C1CCC(=O)N1c1c(Cl)cccc1Cl`, the logP was found to be 0.57.

In turn, `CCCOC(=O)c1cnc2n(c1=O)C(C)CCC2` (stereo unspecified) gave a lipophilicity (logP) of 1.14.

In the case of `Cn1c([N+](=O)[O-])cnc1C1=NOC2CCCCC12` (stereo unspecified), the logP worked out at 2.22.

The molecule `O=c1cc(CSCCO)occ1O` had a log partition coefficient (logP) of -0.69.

In turn, `COC(=O)CNC(=O)Cn1c(C)nc2ccccc2c1=O` showed a logP of 0.4.

The molecule `C[C@@H]1C[C@H]2[C@@H]3CCC4=CC(=O)C=C[C@]4(C)[C@@]3(Cl)[C@@H](O)C[C@]2(C)[C@@]1(OC(=O)c1ccco1)C(=O)CCl` had a logP of 3.9.

`CC1CCCCN1CC1CN=C(N)O1` (stereo unspecified) registered a logP of 0.73.

`CC(C)(C)[N+]([O-])=Cc1ccc(Cl)cc1` showed a logP of 2.4.

`CCC(C)C(N)C(=O)NC(CO)C(=O)NC(C(=O)O)C(C)CC` (stereo not drawn) (H-Ile-Ser-Ile-OH; configuration not given here): the logP is -2.64.

`CCCNC(=O)Cn1cccc(O)c1=O` gave a logP of -0.24.

In turn, `O=c1ccc(/C=C/c2ccc(-n3cnc4c3CCCC4)cc2)n[nH]1` displayed a logP of 2.47.

With `NC1=NCC(CN2CCN(c3ccccc3F)CC2)O1` (stereo unspecified), the logP turned out to be 1.06.

`Nc1nnnn1-c1cccc([N+](=O)[O-])c1` returned a lipophilicity (logP) of 0.67.

As to `C=CC(=O)Oc1ccccc1`, the logP stood at 1.94.

`CCOC(=O)c1cnc2ccc(C)cn2c1=O` registered a logP of 0.9.

`O=C(O)CCCCCON=C(c1ccccc1)c1cncnc1` yielded a logP of 2.91.

Molecule `OCCCNc1[nH]cnc2ncnc1-2` registered a lipophilicity (logP) of 0.11.

The molecule `O=C1c2ccccc2-c2nnc(C(F)(F)F)cc21` gave a logP of 2.21.

The molecule `CCCCOc1cccc2nc(N)nc(N)c12` gave a logP of 2.81.

`c1ccc2c(c1)OCC(c1ncc[nH]1)O2` (stereo unspecified) registered a logP of 1.76.

On to `Cc1cc(Cl)c(C(C)C)c(Cl)c1Cl`, for which the logP turned out to be 6.2.

`COC(=O)Sc1ncc(C=C(C(=O)OC)C(=O)OC)n1C` had a logP of 0.49.

`COc1cc(OC)nc(Sc2cccc(Oc3ccccc3)c2C(=O)O)n1` displayed a logP of 4.15.

The molecule `O=C(O)CCCCON=C(c1ccccc1)c1ncccn1` displayed a logP of 1.94.

In turn, `CC1=C(C#N)C(C)(C)C(C#N)=C(C)N1` had a logP of 2.47.

The molecule `CCOc1ccc(CNc2[nH]cnc3ncnc2-3)cc1` returned a logP of 2.6.

As to `Clc1ccc(-c2noc(N3CCOCC3)n2)cc1`, the lipophilicity (logP) worked out at 3.1.

Molecule `CCCc1nc(N2CCOCC2)nc(N(C)C(=O)c2ccccc2)n1` showed a logP of 2.01.

The molecule `CCN(CC)CCC(=O)Nc1ccccc1` returned a logP of 2.31.

For `CC(C)(O)C1CCC2(C)CCCC(=O)C2C1` (stereo unspecified), the logP stood at 1.92.

In turn, `C[N+](C)([O-])CCC(c1ccccc1)c1ccccc1` showed a logP of 1.1.

`CCCCCNc1ncnc2nc[nH]c12` returned a logP of 2.58.

Consider `COc1ccccc1NC(=O)OCCN1CCCCC1`, for which the logP was 3.11.

With `CC(C)CC(NC(=O)C(N)Cc1ccccc1)C(=O)O` (stereo not drawn) (H-Phe-Leu-OH; configuration not given here), the logP is -1.17.

`CC(C)CC(N)C(=O)NC(CC(C)C)C(=O)NC(CC(C)C)C(=O)N1CCCC1C(=O)O` (stereo unspecified) (H-LLLP-OH; configuration not given here) showed a logP of -1.18.

Regarding `CCCCCC(=O)OCC(=O)C1(O)C(C)CC2C3CCC4=CC(=O)C=CC4(C)C3(F)C(O)CC21C` (stereo unspecified), the logP came to 4.3.

`CC(=NNC(=O)c1ccc([N+](=O)[O-])cc1)c1cnccn1` returned a logP of 2.1.

Molecule `CCN(CC)c1ccc(-n2c(C(F)(F)F)nn(C)c2=S)cn1` gave a logP of 3.14.

`CC(=O)OC(C)(C)C1CCC2(C)CCCC(C)(O)C2C1` (stereo unspecified) showed a logP of 3.8.

As to `Nc1ccn([C@H]2CS[C@@H](CO)O2)c(=O)n1`, the logP was -0.93.

As for `CC1CC(=O)NN=C1c1ccc(-n2ccnc2)cc1` (stereo unspecified), the logP amounted to 1.29.

The molecule `CC(NC(=O)C(Cc1ccccc1)NC(=O)C(N)Cc1c[nH]c2ccccc12)C(=O)O` (stereo not drawn) (H-Trp-Phe-Ala-OH; configuration not given here) displayed a lipophilicity (logP) of -1.

`CCOC(=O)C1=C(C)NC(C)=C(C(=O)OC)C1c1cccc(OC)c1OC` (stereo unspecified) had a logP of 3.58.

`COc1ccc(-c2ccsc2)cc1CNC1CCCNC1c1ccccc1` (stereo unspecified) had a logP of 4.8.

Regarding `CCC(C)C(N)C(=O)N1CCCC1C(=O)O` (stereo not drawn) (H-Ile-Pro-OH; configuration not given here), the logP is -1.79.

`CCc1ccc2c(c1)OCCOCCOCCOCCOCCO2` showed a logP of 0.98.

For `CCOC(=O)CC(C(=O)OC)S(=O)(=O)c1ccc([N+](=O)[O-])cc1` (stereo unspecified), the logP amounted to 1.4.

`CCN(CC)CCSC(=NO)c1nc(-c2ccccc2)no1`: the logP is 3.05.

`COc1ccc(CCNCC(O)COc2ccc(-c3nc(C(C)=O)c[nH]3)cc2)cc1OC` (stereo unspecified) showed a logP of 2.7.

With `Cc1ccc(S(=O)(=O)C2(C(=O)OC(C)C)CCCCC2)cc1`, the logP is 3.21.

With `Brc1ccc2ccc3c(Br)ccc4ccc1c2c43`, the logP was 6.69.

The molecule `OCCCNc1ncnc2c1ncn2C1OC(CO)C(O)C1O` (stereo unspecified) gave a logP of -0.86.

In turn, `CC(C)CC(N)C(=O)NC(CO)C(=O)NC(CC(C)C)C(=O)O` (stereo not drawn) (H-Leu-Ser-Leu-OH; configuration not given here) registered a logP of -2.35.

Molecule `CCC(=O)NCCCCCN(O)C(=O)CCC(=O)NCCCCCN(O)C(=O)CCC(=O)NCCCCCN(O)C(C)=O` had a logP of 0.17.

`N#Cc1cccc(Cc2ncccn2)c1` had a logP of 1.46.

With `CSCCC(NC(=O)C(N)Cc1ccccc1)C(=O)O` (stereo not drawn) (H-Phe-Met-OH; configuration not given here), the logP was -1.59.

The molecule `COc1cccc2c1OP(=O)(OCC1C=CC(n3cc(C)c(=O)[nH]c3=O)O1)OC2` (stereo unspecified) showed a logP of 0.15.

Take `CC1CN(CC2CN=C(N)O2)CC(C)O1` (stereo unspecified): the logP was determined as 0.16.

The molecule `Nc1nnnn1-c1c(Cl)cccc1Cl` registered a logP of 1.56.

In turn, `OCC1OC(n2cnc3c(NCc4ccccc4)ncnc32)C(O)C1O` (stereo unspecified) returned a logP of 1.23.

`Cn1c2c(c3cc(Cl)ccc31)CCNC2` yielded a logP of 2.3.

`O=C(NC1CCCCCC1)NS(=O)(=O)c1cnccc1NC1CCCCCC1` yielded a logP of 4.96.

`Cc1coc2nc3oc(=O)cc(C)c3cc12` yielded a logP of 1.64.

As to `CC#CC(=O)c1c(C)nc2c3c(c(C(=O)N(C)C)cn12)CCC(c1ccccc1)O3` (stereo unspecified), the logP worked out at 3.4.

For the molecule `CCOC(=O)C1=C(C)NC(C)=C(C(=O)OC)C1c1cc(OC)c(OC)c(OC)c1` (stereo unspecified), the logP came out at 3.39.

Turning to `CC(C)(C)Nc1nc(N)nc(O)n1`, the logP was found to be 2.07.

With `O=C1C(O)N=C(c2ccccc2)c2cc(Cl)ccc2N1CCO` (stereo unspecified), the logP was 1.53.

As for `O=C(O)Cc1nn(Cc2nc3cc(C(F)(F)F)ccc3s2)c(=O)c2ccccc12`, the logP stood at 2.37.

Turning to `CCOCCOCCOC1CCC(NC(=O)NC23CC4CC(CC(C4)C2)C3)CC1` (stereo unspecified), the logP was determined as 2.9.

`Fc1cncnc1`: the lipophilicity (logP) is -0.03.

In turn, `CSc1ccc2nc(-c3ccc(N)cc3)cn2c1` showed a logP of 2.9.
